Patent US7910622B2, “Modulation of bacterial quorum sensing with synthetic ligands” (Wisconsin Alumni Research Foundation, priority 2007, dated 2011)

Columns and labels:
Test in all cases: cell-based
LuxR [1] = biological target: T1, LuxR (Aliivibrio fischeri, UniProt P35327); set-up: species or system Vibrio fischeri; conditions: for V. fischeri-LuxR Activation [%]: 200 μM ligand; for V. fischeri-LuxR Activation [%] / activation at 200 µM: V. fischeri ES114 (Δ-luxI), normalized to OHHL; for activation at 200 µM: read-out: V. fischeri-LuxR Activation [%], 200 μM ligand
T1 construct: a Δ-luxI derivative of V. fischeri ES114, in which the native lux operon behaves as the bioluminescent reporter; endogenous in cells; host or cells: V. fischeri ES114 (Δ-luxI)
T1 sequence (P35327 whole entry): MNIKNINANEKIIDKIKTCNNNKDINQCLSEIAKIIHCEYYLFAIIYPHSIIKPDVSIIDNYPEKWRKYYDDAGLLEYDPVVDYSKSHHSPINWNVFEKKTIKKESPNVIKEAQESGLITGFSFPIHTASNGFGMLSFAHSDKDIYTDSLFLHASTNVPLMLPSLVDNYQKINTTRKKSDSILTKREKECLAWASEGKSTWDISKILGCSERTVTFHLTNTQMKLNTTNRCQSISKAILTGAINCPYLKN
Protocol: (§1) Luminescence assays. For agonism assays, an appropriate amount of AHL stock solution was added into a 96-well plate. An overnight culture of E. coli or V. fischeri was diluted 1:10 with appropriate media (LB plus 10 μg/mL tetracycline for E. coli; LBS for V. fischeri). A 200-μL portion of the diluted culture was added to each well of the plate. Plates were grown for 4-8 h with shaking (200 rpm; 30° C. for E. coli and RT for V. fischeri). Luminescence was measured using a multilabel plate reader and normalized to cell density. […] All assays were performed in triplicate. Graphpad Prism software was used to calculate IC50 and EC50 values.
(§2) Vibrio fischeri assay procedures. […] An overnight culture of V. fischeri ES114 (WT, Δ-luxI or Δ-luxR) was diluted 1:10 with LBS medium. A-200 μL portion of the diluted culture was added to each well of the plate. Plates were grown at RT with shaking (200 rpm) until the OD600=0.35-0.4 (4-6 h). Luminescence then was measured and normalized to cell density per well. […] All assays were performed in triplicate. IC50 and EC50 values were calculated using GraphPad Prism software using a sigmoidal curve fit.
(§3) V. fischeri reporter gene assay protocols. […] An overnight culture of V. fischeri ES114 (D-luxI) was diluted 1:10 with LBS medium. A 200-μL portion of the diluted culture was added to each well of the multititer plate. Plates were grown at RT with shaking (200 rpm) until the OD600=0.35-0.4 (4-6 h). Luminescence then was measured and normalized to cell density per well.
(§4) Dose response reporter gene assays. […] IC50 and EC50 values were calculated using GraphPad Prism software (v. 4.0) using a sigmoidal curve fit.
(§5) V. fischeri reporter gene assay protocols. […] An overnight culture of V. fischeri ES114 (Δ-luxI) was diluted 1:10 with LBS medium. A200 μL portion of the diluted culture was added to each well of the multititer plate. Plates were incubated at RT until the OD600=0.35-0.4 (4-6 h). Luminescence then was measured and normalized to cell density per well.
as §4

TraR = biological target: T2, TraR (Agrobacterium tumefaciens, UniProt P33905); conditions: for A. tumefaciens-TraR Activation [%]: 10 μM ligand; for A. tumefaciens-TraR Inhibition [%]: 10 μM synthetic ligand against 100 nM OOHL; for activation at 10 µM: read-out: A. tumefaciens-TraR Activation [%]
T2 construct: These strains lack their AHL synthase (I) genes, but retain their native R genes; endogenous in cells; host or cells: A. tumefaciens WCF47 (Δ-traI) with PtraI-lacZ plasmid pCF372
T2 sequence (P33905 whole entry): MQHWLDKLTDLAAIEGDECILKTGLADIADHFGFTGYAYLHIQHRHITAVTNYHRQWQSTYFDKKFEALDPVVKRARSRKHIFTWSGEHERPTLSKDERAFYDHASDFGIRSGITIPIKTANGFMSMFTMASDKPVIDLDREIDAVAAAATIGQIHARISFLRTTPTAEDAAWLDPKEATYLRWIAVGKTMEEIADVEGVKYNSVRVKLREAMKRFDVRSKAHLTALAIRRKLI
Protocol: A. tumefaciens reporter gene assay protocols. […] An overnight culture of A. tumefaciens WCF47 (pCF372) was diluted to an OD600 of 0.1 in fresh AB minimal medium containing 400 μg/mL octopine and 50 μg/mL streptomycin. A 200 μL-portion of the diluted culture was added to each well of the multititer plate containing AHLs. Plates were grown at 28° C. for 18-20 h in a rotary shaking incubator (200 rpm). The cultures were then assayed for β-galactosidase activity following the Miller assay method. Briefly, 200 μL aliquots of bacteria from each of the wells were added to wells of a polystyrene 96-well plate and the OD600 of each well was recorded. Next, 50 μL aliquots from each well were transferred to a solvent resistant 96-well plate containing 200 μL Z buffer, 8 μL CHCl3 and 4 μL 0.1% aq. sodium dodecylsulfate (SDS). This suspension was mixed via repetitive pipetting, after which the CHCl3 was allowed to settle. A 100-μL aliquot from each well was transferred to a fresh polystyrene 96-well plate, and 20 μL of substrate, o-nitrophenyl-β-D-galactopyranoside (ONPG, 4 μg/mL in phosphate buffer), was added at time zero. After the development of appropriate yellow color (ca. 15-35 min), the reaction was terminated by the addition of 50 μL of 1 M Na2CO3. Absorbance at 420 nm and 550 nm was measured for each well using a plate reader, and Miller units were calculated according to standard methods.
as §4
A. tumefaciens reporter gene assay protocols. […] An overnight culture of A. tumefaciens WCF47 (pCF372) was diluted 1:10 with fresh AB minimal medium containing 400 μg/mL octopine and 50 μg/mL streptomycin. A 200 μL portion of the diluted culture was added to each well of the multititer plate containing AHLs. Plates were incubated at 28° C. for 18-24 h. The cultures were then assayed for β-galactosidase activity following the Miller assay method. Briefly, 200 μL aliquots of bacteria from each of the wells were added to wells of a 96-well multititer plate, and the OD600 of each well was recorded. Next, 50 μL aliquots from each well were transferred to a solvent resistant 96-well multititer plate containing 200 μL Z buffer, 8 μL CHCl3 and 4 μL 0.1% aq. SDS. This suspension was mixed via repetitive pipetting, after which the CHCl3 was allowed to settle. A 100 μL aliquot from each well was transferred to a fresh 96-well multititer plate, and 20 μL of substrate, o-nitrophenyl-β-D-galactopyranoside (ONPG, 4 μg/mL in phosphate buffer), was added at time zero. After the development of appropriate yellow color (ca. 20-30 min), the reaction was terminated by the addition of 50 μL of 1 M Na2CO3. Absorbances at 420 nm and 550 nm were measured for each well using a plate reader, and Miller units were calculated according to standard methods.
as §4

LasR [2] = biological target: T3, LasR (Pseudomonas aeruginosa, UniProt P25084); conditions: for E. coli-LasR Activation [%]: 5 μM ligand; for EC50: read-out: LasR EC50
T3 construct: expressed in transfected cells; host or cells: E. coli DH5α (pJN105L pSC11), arabinose-induced
T3 sequence (P25084 whole entry): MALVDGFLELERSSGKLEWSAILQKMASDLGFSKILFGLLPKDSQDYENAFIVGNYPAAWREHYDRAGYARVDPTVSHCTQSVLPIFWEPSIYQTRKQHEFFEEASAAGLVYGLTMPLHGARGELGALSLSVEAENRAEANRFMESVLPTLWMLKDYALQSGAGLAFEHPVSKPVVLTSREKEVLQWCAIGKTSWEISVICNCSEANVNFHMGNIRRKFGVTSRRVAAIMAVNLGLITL
Protocol: (§6) E. coli LasR reporter gene assay protocols. […] An overnight culture of E. coli DH5a (pJN105L pSC11) grown at 37° C. was subculture by diluting 1/10 in fresh LB medium containing 100 μg/mL ampicillin and 15 μg/mL gentamicin and shaking at 37° C. until OD600=0.3. Arabinose (4 mg/mL) was then added to induce the LasR promoter and a 200 μL-portion of this culture was added to each well of the multititer plate containing AHLs. Plates were grown at 37° C. for 2 hours in a rotary shaking incubator (200 rpm; OD600=0.45). The cultures were then assayed for activity following the identical β-galactosidase assay protocols used in the A. tumefaciens reporter gene assays.
as §4
(§7) E. coli LasR reporter gene assay protocols. […] An overnight culture of E. coli DH5α (pJN105L pSC11) was diluted 1:10 with fresh LB medium containing 100 μg/mL ampicillin and 15 μg/mL gentamicin. This sub-culture was incubated at 37° C. until OD600=0.3 (4-6 h). Arabinose (4 mg/mL) was then added to induce the LasR promoter, and a 200 μL portion of this culture was added to each well of the multititer plate containing AHLs. Plates were incubated at 37° C. until OD600=0.45 (4-6 h). The cultures were then assayed for LasR activity following the identical β-galactosidase assay protocols used in the A. tumefaciens reporter gene assays (see above).
as §4

LasR [3] = biological target: T3, LasR; format: cell-based; conditions: for E. coli-LasR Inhibition [%]: 5 μM synthetic ligand against 7.5 nM OdDHL; for E. coli-LasR Inhibition [%] / inhibition at 5 µM: E. coli DH5α (pJN105L pSC11), normalized to OdDHL; for inhibition at 5 µM: read-out: E. coli-LasR Inhibition [%], 5 μM synthetic ligand against 7.5 nM OdDHL
Protocol: as §6, §4, §7, §4

LuxR [4] = biological target: T1, LuxR; format: cell-based, Vibrio fischeri; conditions: for V. fischeri-LuxR Inhibition [%]: 5 μM synthetic ligand against 5 μM OHHL; for V. fischeri-LuxR Inhibition [%] / inhibition at 5 µM: V. fischeri ES114 (Δ-luxI), normalized to OHHL; for inhibition at 5 µM: read-out: V. fischeri-LuxR Inhibition [%], 5 μM synthetic ligand against 5 μM OHHL; for IC50: LuxR IC50, determined against 5 μM OHHL
Protocol: as §1, §2, §3, §4, §5, §4

[5] = A. tumefaciens WCF47 (pCF372), normalized to OOHL
[6] = E. coli DH5α (pJN105L pSC11), normalized to OdDHL

| Compound | V. fischeri-LuxR Activation [%] (LuxR [1]) | A. tumefaciens-TraR Activation [%] (TraR; [5]) | A. tumefaciens-TraR Inhibition [%] (TraR; [5]) | E. coli-LasR Activation [%] (LasR [2]; [6]) | E. coli-LasR Inhibition [%] (LasR [3]) | V. fischeri-LuxR Inhibition [%] (LuxR [4]) | also measured |
| --- | --- | --- | --- | --- | --- | --- | --- |
| 2-aminophenol analog of OdDHL [compound 7, reference compound] | 1% | 0% | 9% | 18% | 4% | 3% |  |
| 4-N-tertbutoxycarbonyl-PHL [B25] | 2% | 0% | 11% | 27% | 10% | 33% | EC50 (LasR [2]): > 200000 nM |
| 4-amino PHL [B26] | 3% | 0% | 5% | 0% | 8% | 12% |  |
| 4-azido PHL [B20] | 5% | 0% |  | 0% | 19% |  |  |
| O=C(Cc1ccccc1)N[C@H]1CCOC1=O [11a] |  |  |  |  |  | abolished inhibitory activity |  |
| O=C(Cc1ccc(-c2ccccc2)cc1)N[C@H]1CCOC1=O [11q, 4-phenyl PHL] |  |  |  |  |  |  | inhibition at 5 µM (LuxR [4]): ~80% |
| O=C(Cc1ccc(C(F)(F)F)cc1)N[C@H]1CCOC1=O [11s, 4-trifluoromethyl PHL] |  |  |  |  |  |  | IC50 (LuxR [4]): 600 nM; inhibition at 5 µM (LuxR [4]): ~80% |
| Nc1ccc(CC(=O)N[C@H]2CCOC2=O)cc1 [11v, 4-amino PHL] |  |  |  |  |  | lowest inhibitory activities |  |
| O=C(Cc1ccc(O)cc1)N[C@H]1CCOC1=O [11w, 4-hydroxy PHL] |  |  |  |  |  | lowest inhibitory activities |  |
| CCCCCCCCCC(=O)CC(=O)N[C@H]1CCOC1=O [A8, N-(3-oxo-dodecanoyl)-L-homoserine lactone, reference compound] |  |  |  |  |  |  | IC50 (LuxR [4]): 400 nM |
| O=C(CC(=O)N[C@@H]1CCOC1=O)Cc1ccccc1 [A25] | 3% | 2% | 50% | 84% | −7% |  | EC50 (LasR [2]): 540 nM |
| O=C(CCCc1ccccc1)N[C@@H]1CCOC1=O [A26] | 3% | 0% | 31% | 0% |  | 41% |  |
| O=C(CCCc1ccccc1)N[C@@H]1CCOC1=O [D-3] |  |  |  |  |  | ca. 20% |  |
| O=C(Cc1ccc(Br)cc1)N[C@@H]1CCOC1=O [D-5] |  |  |  |  |  | ca. 20% |  |
| CCCCCC(=O)CC(=O)N[C@H]1CCOC1=O [compound 1, N-(3-oxo-octanoyl)-L-homoserine lactone, reference compound] |  |  |  |  | 50% |  | activation at 200 µM (LuxR [1]): ~25%; EC50 (TraR; EC50 of autoinducer in A. tumefaciens WCF47 (pCF372), value in method text): 100 nM; EC50 (TraR; TraR EC50): 200 nM; activation at 10 µM (TraR): 100%; IC50 (LasR [3]; determined against 7.5 nM OdDHL, read-out: LasR IC50): 110 nM; inhibition at 5 µM (LasR [3]): ≥ 50%; inhibition at 5 µM (LuxR [4]): 63% |
| CCCC(=O)CC(=O)N[C@H]1CCOC1=O [compound 3] |  |  |  |  |  |  | EC50 (LuxR [1]; LuxR EC50, V. fischeri ES114 (Δ-luxI)): 3000 nM; activation at 200 µM (LuxR [1]): 100%; activation at 10 µM (TraR): 1%; inhibition at 10 µM (TraR; read-out: A. tumefaciens-TraR Inhibition [%], 10 μM synthetic ligand against 100 nM OOHL, A. tumefaciens WCF47 (pCF372), normalized to OOHL): 89%; activation at 5 µM (LasR [2]; read-out: E. coli-LasR Activation [%], 5 μM ligand, E. coli DH5α (pJN105L pSC11), normalized to OdDHL): 1%; inhibition at 5 µM (LasR [3]): 15% |
